We go through 2 molecules from patent publication EP2138169B1, “Transdermal delivery system of hormones without penetration enhancers” (Bayer Intellectual Property GmbH, priority 2003, dated 2005).

Molecules are shown by their SMILES.

A word on the Cmax: it is the maximum level reached in the sampled fluid or tissue. As usually defined, the Tmax is the time at which the peak concentration occurs.

One data set can be described thus: clinical. Particulars: female, human, in vivo. The arrangement: species or system women. The source says: The effect on ovulation inhibition, serum drug concentrations and safety of a patch of the invention was investigated in a selected population of women. The study design was based on the requirements of the EMEA quideline for clinical studies with contraceptive steroids (Commitee for Proprietary Medicinal Products, CPMP/EWP 519/98).
Arcare MA-24A® is a polyisobutylene based adhesive from Adhesive Research.
The treatment phase includes a period of two menstrual cycles. The first treatment in the first cycle began one day after the volunteers started menstruating in this cycle by application of a patch. A total of three test patches were applied in intervals of 7 days between, such as application at days 1, 8 and 15 of the first cycle - each at different application sites- during each treatment cycle. Each patch was worn for 7 days, then replaced with a new patch to complete a total of 21 days of continuous use. This was followed by a 7-day treatment-free interval before the next treatment period started with a total of three patches applied, each applied with an interval of 7 days. If the patches were lost or became more than 40% detached, a new patch was applied.
The AUC was calculated according to the linear trapezoidal rule. […]
After incubation and centrifugation, the resultant precipitate was redissolved with NaOH. The assay has a lower limit of quantification of approx. 250 pg/ml.

The conditions of data set [1]: cited from earlier work.

`C#C[C@]1(O)CC[C@H]2[C@@H]3CCc4cc(O)ccc4[C@H]3CC[C@@]21C` [Ethinylestradiol] gave a Cmax in “clinical” (Cmax (mean) of ethinyl estradiol (EE)) of 0.0456 ng/mL. The time to peak (Tmax) in “clinical” (Tmax (mean) of ethinyl estradiol (EE)) stood at 48 h.
For the molecule `C#C[C@]1(O)C=C[C@H]2[C@@H]3CCC4=CC(=O)CC[C@@H]4[C@H]3CC[C@@]21CC` [Gestodene, 13β-Ethyl-17α-ethynyl-17β-hydroxy-4,15-gonadien-3-one], the Maximal plasma levels entry in data set [1] (US 5,376,377, ethylene vinyl acrylate adhesive layer, Gestodene and ethinylestradiol) is recorded as “about 0.8 ng/ml”. The “maximal plasma levels of Gestodene” value in data set [1] (WO 92/07590, transdermal compositions with penetration enhancers, Gestodene and an estrogen) is listed as “about 0.9 ng/ml”.
